In patent publication US4672068A, “Antihypertensive 1,4-dihydropyridines having a conjugated ester” (Fujirebio Kabushiki Kaisha, priority 1984, dated 1987):

Legend:
[1] = tested on: Male spontaneously hypertensive rats (SHR), arterial blood pressure; experiment: Depressor response after intraduodenal administration (1 mg/kg), Table 2; format: in vivo, rat; conditions: for Half-life: '120<' means greater than 120
Experimental: Arterial blood pressure was measured through the catherized artery with a pressure transducer (MPU-0.5, manufactured by Nihon Kohden Kabushiki Kaisha). The catheter was inserted into the abdominal aorta via the median coccygcal artery of SHR under light ether anesthesia. The recordings were made on a rectigraph (manufactured by Sanei Sokki Kabushiki Kaisha). The 1,4-dihydropyridine derivatives prepared in the foregoing examples were administered with catheter which was inserted previously into the caudal vein or duodenum at least two hours after the operation. SHR were restrained with wire mesh cage immediately after the operation.

[2] = tested on: Male spontaneously hypertensive rats (SHR), arterial blood pressure; experiment: Depressor response after intravenous administration (30 μg/kg), Table 1; format: in vivo, rat; conditions: for Duration: '90<' means greater than 90
Experimental: Male spontaneously hypertensive rats (SHR) which had mean arterial blood pressures higher than 140 mmHg were used for the experiments. Arterial blood pressure was measured through the catherized artery with a pressure transducer (MPU-0.5, manufactured by Nihon Kohden Kabushiki Kaisha). The catheter was inserted into the abdominal aorta via the median coccygcal artery of SHR under light ether anesthesia. The recordings were made on a rectigraph (manufactured by Sanei Sokki Kabushiki Kaisha). The 1,4-dihydropyridine derivatives prepared in the foregoing examples were administered with catheter which was inserted previously into the caudal vein or duodenum at least two hours after the operation. SHR were restrained with wire mesh cage immediately after the operation. Each derivative to be tested was dissolved in 1.5% PVP/ethanol, and then diluted with 0.9% saline or intravenous administration (30 μg/kg), or suspended in 5% gum arabic solution of intraduodenal administration (1 mg/kg).

[3] = tested on: rat (SHR), blood pressure and heart rate; experiment: Depressor response of trans- and cis-forms, dose-response intravenous, Tables 5 and 6; format: in vivo
Experimental: Male spontaneously hypertensive rats (SHR) which had mean arterial blood pressures higher than 140 mmHg were used for the experiments. Arterial blood pressure was measured through the catherized artery with a pressure transducer (MPU-0.5, manufactured by Nihon Kohden Kabushiki Kaisha). The catheter was inserted into the abdominal aorta via the median coccygcal artery of SHR under light ether anesthesia. The recordings were made on a rectigraph (manufactured by Sanei Sokki Kabushiki Kaisha). The 1,4-dihydropyridine derivatives prepared in the foregoing examples were administered with catheter which was inserted previously into the caudal vein or duodenum at least two hours after the operation. SHR were restrained with wire mesh cage immediately after the operation. […]

[4] = tested on: Male SHR, systolic blood pressure; experiment: Systolic blood pressure by tail cuff method, oral administration (3 mg/kg), Table 4; format: in vivo, rat; conditions: conscious SHR; for Duration: '24<' means greater than 24
Experimental: Systolic blood pressure was measured by the tail cuff method with electrophygmomanometer (PE-300, made by Narco Co.). Each derivative (3 mg/kg) was administered orally, suspended in 5% gum arabic solution.

1-methyl-3-thienyl-2-propenyl methyl 4-(3-nitrophenyl)-2,6-dimethyl-1,4-dihydropyridine-3,5-dicarboxylate [Example 36]
The time to reach the lowest BP [1]: 130 min | ΔBP (Maximum depressor response) [1]: 59 mmHg | Half-life [1]: > 240 min | The time to reach the lowest BP [2]: 25.0 min | ΔBP (Maximum depressor response) [2]: 69 mmHg | Duration [2]: > 220 min

COC(=O)C1=C(C)NC(C)=C(C(=O)OCCC=Cc2cccs2)C1c1cccc([N+](=O)[O-])c1 (stereo not drawn) [Example 11, 4-α-thienyl-3-butenyl methyl 4-(3-nitrophenyl)-2,6-dimethyl-1,4-dihydropyridine-3,5-dicarboxylate]
The time to reach the lowest BP [1]: 200 min | ΔBP (Maximum depressor response) [1]: 25 mmHg | Half-life [1]: 240 min | The time to reach the lowest BP [2]: 1.6 min | ΔBP (Maximum depressor response) [2]: 60 mmHg | Duration [2]: 100 min

COC(=O)C1=C(C)NC(C)=C(C(=O)OC/C=C\c2ccccc2)C1c1cccc([N+](=O)[O-])c1 (stereo not drawn) [Example 56, Methyl (Z)-3-phenyl-2-propenyl 4-(3-nitrophenyl)-2,6-dimethyl-1,4-dihydropyridine-3,5-dicarboxylate (cis)]
Depressure Response MaxΔBP ([3]; 10 μg/kg i.v.): 16.0 mmHg | Depressure Response Peak ([3]; 10 μg/kg i.v.): 1.2 min | MaxΔHR (Heart rates) ([3]; 10 μg/kg i.v.): 30.0 beats/min | T 1/2 (Halflife) ([3]; 10 μg/kg i.v.): 6.3 min | Depressure Response MaxΔBP ([3]; 30 μg/kg i.v.): 40.3 mmHg | Depressure Response Peak ([3]; 30 μg/kg i.v.): 1.3 min | MaxΔHR (Heart rates) ([3]; 30 μg/kg i.v.): 80.0 beats/min | T 1/2 (Halflife) ([3]; 30 μg/kg i.v.): 11.9 min | Depressure Response MaxΔBP ([3]; 100 μg/kg i.v.): 67.5 mmHg | Depressure Response Peak ([3]; 100 μg/kg i.v.): 1.8 min | MaxΔHR (Heart rates) ([3]; 100 μg/kg i.v.): 87.5 beats/min | T 1/2 (Halflife) ([3]; 100 μg/kg i.v.): 32.0 min | ED40 ([3]; Rattus norvegicus, intravenous, from regression line): 0.0299 mg/kg | The time to reach the lowest BP [2]: 1.3 min | ΔBP (Maximum depressor response) [2]: 40.3 mmHg

CC1=C(C(=O)OCC=CC=Cc2ccccc2)C(c2cccc([N+](=O)[O-])c2)C(C(=O)OC(C)C)=C(C)N1 (centres unmarked) [Example 61, Isopropyl 5-phenyl-2,4-pentadienyl 4-(3-nitrophenyl)-2,6-dimethyl-1,4-dihydropyridine-3,5-dicarboxylate]
ΔBP After 1 hour [4]: -40 mmHg | ΔBP After 3 hours [4]: -100 mmHg | The time to reach the lowest BP [2]: 7.0 min | ΔBP (Maximum depressor response) [2]: 85 mmHg | Duration [2]: > 90 min

COC(=O)C1=C(C)NC(C)=C(C(=O)OCCC=Cc2ccc3ccccc3c2)C1c1cccc([N+](=O)[O-])c1 (stereo not drawn) [Example 12, 4-β-naphthyl-3-butenyl methyl 4-(3-nitrophenyl)-2,6-dimethyl-1,4-dihydropyridine-3,5-dicarboxylate]
ΔBP After 1 hour [4]: -30 mmHg | ΔBP After 3 hours [4]: -55 mmHg | Duration [4]: > 24 h

COC(=O)C1=C(C)NC(C)=C(C(=O)OCCCC=Cc2ccccc2)C1c1cccc([N+](=O)[O-])c1 (centres unmarked) [Example 50, Methyl 5-phenyl-4-pentenyl 4-(3-nitrophenyl)-2,6-dimethyl-1,4-dihydropyridine-3,5-dicarboxylate]
ΔBP After 1 hour [4]: -75 mmHg | The time to reach the lowest BP [2]: 2 min | ΔBP (Maximum depressor response) [2]: 64 mmHg | Duration [2]: > 90 min

COC(=O)C1=C(C)NC(C)=C(C(=O)OC(C)C=Cc2ccco2)C1c1cccc([N+](=O)[O-])c1 (centres unmarked) [Example 33, 1-methyl-3-furyl-3-propenyl methyl 4-(3-nitrophenyl)-2,6-dimethyl-1,4-dihydropyridine-3,5-dicarboxylate]
The time to reach the lowest BP [1]: 22 min | ΔBP (Maximum depressor response) [1]: 100 mmHg | Half-life [1]: > 240 min | The time to reach the lowest BP [2]: 10.0 min | ΔBP (Maximum depressor response) [2]: 85 mmHg | Duration [2]: > 240 min

C#CCOC(=O)C1=C(C)NC(C)=C(C(=O)OC)C1c1cccc([N+](=O)[O-])c1 (centres unmarked) [D, 4(3-nitrophenyl)-2,6-dimethyl-1,4-dihydropyridine-3,5-dicarboxylic aci 3methyl ester 5propargyl ester, reference compound]
ΔBP (Maximum depressor response) [1]: 0 mmHg

COC(=O)C1=C(C)NC(C)=C(C(=O)OCCC=Cc2ccccc2)C1c1cccc([N+](=O)[O-])c1 (centres unmarked) [Example 4, 4-phenyl-3-butenyl methyl 4-(3-nitrophenyl)-2,6-dimethyl-1,4-dihydropyridine-3,5-dicarboxylate]
The time to reach the lowest BP [1]: 105 min | ΔBP (Maximum depressor response) [1]: 20 mmHg | Half-life [1]: > 170 min | The time to reach the lowest BP [2]: 1.3 min | ΔBP (Maximum depressor response) [2]: 63.3 mmHg | Duration [2]: > 90 min

COC(=O)C1=C(C)NC(C)=C(C(=O)OCC=CC=Cc2ccccc2)C1c1cccc([N+](=O)[O-])c1 (centres unmarked) [Example 16, 5-phenyl-2,4-pentadienyl methyl 4-(3-nitrophenyl)-2,6-dimethyl-1,4-dihydropyridine-3,5-dicarboxylate]
ΔBP After 1 hour [4]: -55 mmHg | ΔBP After 3 hours [4]: -60 mmHg | Duration [4]: > 24 h | The time to reach the lowest BP [1]: 50 min | ΔBP (Maximum depressor response) [1]: 45 mmHg | Half-life [1]: > 120 min

COC(=O)C1=C(C)NC(C)=C(C(=O)OC(C)C=Cc2ccccc2)C1c1cccc([N+](=O)[O-])c1 (centres unmarked) [Example 30, 1-methyl-3-phenyl-2-propenyl methyl 4-(3-nitrophenyl)-2,6-dimethyl-1,4-dihydropyridine-3,5-dicarboxylate]
The time to reach the lowest BP [1]: 65 min | ΔBP (Maximum depressor response) [1]: 89 mmHg | Half-life [1]: > 240 min | The time to reach the lowest BP [2]: 5.0 min | ΔBP (Maximum depressor response) [2]: 75 mmHg | Duration [2]: > 120 min

CC=CC=CCOC(=O)C1=C(C)NC(C)=C(C(=O)OC)C1c1cccc([N+](=O)[O-])c1 (centres unmarked) [Example 66, methyl 2,4-hexadienyl 4-(3-nitrophenyl)-2,6-dimethyl-1,4-dihydropyridine-3,5-dicarboxylate]
The time to reach the lowest BP [1]: 35 min | ΔBP (Maximum depressor response) [1]: 65 mmHg | Half-life [1]: > 120 min | The time to reach the lowest BP [2]: 1.4 min | halflife (number in parentheses in Duration column) [2]: 43.3 min | ΔBP (Maximum depressor response) [2]: 71.7 mmHg | Duration [2]: > 90 min

C=CCOC(=O)C1=C(C)NC(C)=C(C(=O)OC)C1c1cccc([N+](=O)[O-])c1 (centres unmarked) [C, 4(3-nitrophenyl)-2,6-dimethyl-1,4-dihydropyridine-3,5-dicarboxylic aci 3methyl ester 5allyl ester, reference compound]
The time to reach the lowest BP [1]: 8 min | ΔBP (Maximum depressor response) [1]: 20 mmHg | Half-life [1]: 20.0 min

COC(=O)C1=C(C)NC(C)=C(C(=O)OC)C1c1ccccc1[N+](=O)[O-] [A, 4-(o-nitrophenyl)-2,6-dimethyl-1,4-dihydropyridine-3,5-dicarboxylic acid dimethyl ester, reference compound]
ΔBP After 1 hour [4]: -45 mmHg | ΔBP After 3 hours [4]: -22.0 mmHg | Duration [4]: < 7 h | The time to reach the lowest BP [1]: 6.0 min | ΔBP (Maximum depressor response) [1]: 48.3 mmHg | The time to reach the lowest BP [2]: 0.9 min | ΔBP (Maximum depressor response) [2]: 18.7 mmHg | Duration [2]: 35.6 ± 6.5 min

COC(=O)C1=C(C)NC(C)=C(C(=O)OC(C=Cc2ccccc2)c2ccccc2)C1c1cccc([N+](=O)[O-])c1 (centres unmarked) [Example 27, 1,3-diphenyl-2-propenyl methyl 4-(3-nitrophenyl)-2,6-dimethyl-1,4-dihydropyridine-3,5-dicarboxylate]
ΔBP After 1 hour [4]: -130 mmHg | ΔBP After 3 hours [4]: -113 mmHg | The time to reach the lowest BP [1]: 170 min | ΔBP (Maximum depressor response) [1]: 82 mmHg | Half-life [1]: > 240 min | The time to reach the lowest BP [2]: 56 min | ΔBP (Maximum depressor response) [2]: 45 mmHg | Duration [2]: > 240 min

CC1=C(C(=O)OCC=Cc2ccccc2)C(c2cccc([N+](=O)[O-])c2)C(C(=O)OCCOc2ccccc2)=C(C)N1 (centres unmarked) [Example 44, Cinnamyl 2-phenoxyethyl 4-(3-nitrophenyl)-2,6-dimethyl-1,4-dihydropyridine-3,5-dicarboxylate]
ΔBP After 1 hour [4]: -30 mmHg | ΔBP After 3 hours [4]: -70 mmHg | Duration [4]: 7 to 24 h | The time to reach the lowest BP [2]: 7 min | halflife (number in parentheses in Duration column) [2]: 45 min | ΔBP (Maximum depressor response) [2]: 43 mmHg

CCOC(=O)C1=C(C)NC(C)=C(C(=O)OCC=Cc2ccccc2)C1c1cccc([N+](=O)[O-])c1 (centres unmarked) [Example 15, Cinnamyl ethyl 4-(3-nitrophenyl)-2,6-dimethyl-1,4-dihydropyridine-3,5-dicarboxylate]
ΔBP After 3 hours [4]: -35 mmHg | Duration [4]: 7 to 24 h | The time to reach the lowest BP [1]: 75 min | ΔBP (Maximum depressor response) [1]: 45 mmHg | Half-life [1]: > 120 min
